This passage reports melting point results from patent US7456177B2, “Heteroaryl fused azapolycyclic compounds” (Pfizer Inc., priority 2003, dated 2008).

Each structure is given as a SMILES string.

Usually melting point stands for the temperature of the solid-liquid transition. `CN1CC2Cc3cccnc3C(C2)C1.Cl.Cl` (centres unmarked) registered a melting point of 260 to 266 °C.
Turning to `Cn1nc2c3c(cccc3c1=O)C1CNCC2C1` (centres unmarked), the melting point lay in the range of 320 to 322 °C.
